Values of other authors in PubChem BioAssay AID1259409 (Chemical Carcinogenesis Research Information System (CCRIS), 2018).

Tested on: rodent chemically induced tumor inhibition, incidence and multiplicity
Test: CCRIS tumor inhibitor studies

[O]=[V](=[O])[OH]
tumour outcome (control, treated, inhibition, significance) (Carcinogen: 7,12-DIMETHYLBENZ[A]ANTHRACENE (57-97-6), Dose [Inhibitor]: DRINKING WATER, Route [Inhibitor]: 4.27 µM/L DIRECTLY AFTER CARCINOGEN UNTIL 34 WKS, Species: RAT, Strain/Sex: SPRAGUE-DAWLEY/FEMALE, Target Tissue: Type of Lesion: MAMMARY: CARCINOMA, Dose [Carcinogen]: 0.5 MG/100 G BW AT 50 D OF AGE ONCE (STUDY DURATION: 35 WKS)): 100%, 60%, 40%, p<0.05
outcome (Carcinogen: 7,12-Dimethylbenzanthracene, 57-97-6, Dose [Inhibitor]: 0.5 ppm in drinking water beginning immediately after carcinogen up to 35 wks study duration, Route [Inhibitor]: Oral, Species: Rat, Strain/Sex: Sprague-Dawley/Female, Target Tissue: Type of Lesion: Mammary gland: Adenocarcinoma, Dose [Carcinogen]: 0.5 mg/100 g bw iv once, study duration 35 wk, Promoter: None): 9/10 (90%), 6/10 (60%), p<0.05
outcome (Carcinogen: INTRAVENOUS; Dose [Inhibitor]: 7,12-DIMETHYLBENZ[A]ANTHRACENE; 57-97-6; Route [Inhibitor]: 0; 0.5 PPM IN DRINKING WATER FOR 35 WK BEGINNING IMMEDIATELY POST CARCINOGEN TREATMENT, STUDY DURATION: 35 WK), Species: RAT, Strain/Sex: SPRAGUE-DAWLEY/FEMALE, Target Tissue: Type of Lesion: 9/10 (90%), 6/10 (60%), 33%, P<0.05): 8.11, 5.33, 34%, p<0.01
tumour outcome (control, treated, inhibition, significance) (Carcinogen: N,N-Diethylnitrosamine;(55-18-5, Dose [Inhibitor]: 0.5 ppm as vanadium starting 4 wk prior to DEN and stopped at week 4, Route [Inhibitor]: Oral (drinking water), Species: Rats, Strain/Sex: Sprague-Dawley/Male, Target Tissue: Type of Lesion: Liver: Preneoplastic nodules, Dose [Carcinogen]: Single 200 mg/kg dose in 0.9% saline at wk 4 of experiment, Promoter: Phenobarbital): 15/15 (100%), 4/12 (33.33%), 66.67%

[Cl][Zn][Cl]
tumour outcome (control, treated, inhibition, significance) (Carcinogen: CISPLATIN, 15663-27-1, Dose [Inhibitor]: 0, 40 UMOL/KG/D 3 D/WK FOR 8 WK ADMINISTERED 24 HR PRIOR TO EACH CARCINOGEN DOSE (STUDY DURATION: 24 WK), Route [Inhibitor]: SUBCUTANEOUS, Species: MOUSE, Strain/Sex: STRAIN-A/FEMALE, Target Tissue: Type of Lesion: LUNG: TUMOR, Dose [Carcinogen]: 2 UMOL/KG/D 3 D/WK FOR 8 WK, Promoter: NONE USED): 100%, 69%, 31%, p<0.05
tumour outcome (control, treated, inhibition, significance) (Carcinogen: MELPHALAN, 148-82-3, Dose [Inhibitor]: 0, 40 UMOL/KG/D 3 D/WK FOR 8 WK ADMINISTERED 24 HR PRIOR TO EACH CARCINOGEN DOSE (STUDY DURATION: 24 WK), Route [Inhibitor]: SUBCUTANEOUS, Species: MOUSE, Strain/Sex: STRAIN-A/FEMALE, Target Tissue: Type of Lesion: LUNG: TUMOR, Dose [Carcinogen]: 4 UMOL/KG/D 3 D/WK FOR 8 WK, Promoter: NONE USED): 100%, 100%, 0%, not significant

CSCC[C@H](NC(=O)[C@@H](N)Cc1c[nH]c2ccccc12)C(=O)N[C@@H](CC(=O)O)C(=O)N[C@@H](Cc1ccccc1)C(N)=O
tumour outcome (control, treated, inhibition, significance) (Carcinogen: N-METHYL-N'-NITRO-N-NITROSOGUANIDINE, 70-25-7, Dose [Inhibitor]: 1 MG/KG BW IN DEPOT FORM 1/2 D BEGINNING 1 WK POST LAST CARCINOGEN DOSE FOR DURATION OF STUDY (STUDY DURATION: 52 WK), Route [Inhibitor]: SUBCUTANEOUS, Species: RAT, Strain/Sex: WISTAR/MALE, Target Tissue: Type of Lesion: STOMACH: ADENOCARCINOMA, Dose [Carcinogen]: 50 UG/ML IN DRINKING WATER FOR 25 WK, Promoter: NONE USED): 12/19 (63%), 6/19 (32%), 49%, p<0.05

CC(C)CCC[C@@H](C)[C@H]1CC[C@H]2[C@@H]3CC=C4C[C@@H](OS(=O)(=O)O)CC[C@]4(C)[C@H]3CC[C@]12C
tumour outcome (control, treated, inhibition, significance) (Carcinogen: 7,12-DIMETHYLBENZ[A]ANTHRACENE, 57-97-6, Dose [Inhibitor]: 0, 400 UG IN 0.2 ML METHANOL:ACETONE (1:4) APPLIED 10 MIN PRIOR TO EACH PROMOTER DOSE FOR 20 WK (STUDY DURATION: 20 WK), Route [Inhibitor]: DERMAL, Species: MOUSE, Strain/Sex: CD-1/FEMALE, Target Tissue: Type of Lesion: SKIN: TUMOR, Dose [Carcinogen]: 100 UG ONCE, Promoter: 12-O-TETRADECANOYLPHORBOL-13-ACETATE, 16561-29-8, MEZEREIN, 34807-41-5, Promoter: 12-O-TETRADECANOYLPHORBOL-13-ACETATE, 16561-29-8, MEZEREIN, 34807-41-5): 90%, 40%, 56%, not calculated

CN(C)CCOC(c1ccccc1)c1ccccc1
tumour outcome (control, treated, inhibition, significance) (Carcinogen: 7,12-DIMETHYLBENZ[A]ANTHRACENE, 57-97-6, Dose [Inhibitor]: 0, 0.086 UMOL 2/WK BEGINNING 1 WK POST CARCINOGEN DOSE AND CONTINUING FOR DURATION OF STUDY (STUDY DURATION: 15 WK), Route [Inhibitor]: DERMAL, Species: MOUSE, Strain/Sex: SENCAR/FEMALE, Target Tissue: Type of Lesion: SKIN: PAPILLOMA, Dose [Carcinogen]: 10 NMOL ONCE, Promoter: 12-O-TETRADECANOYLPHORBOL-13-ACETATE, 16561-29-8): 97%, 75%, 23%, not calculated
tumour outcome (control, treated, inhibition, significance) (Carcinogen: 7,12-DIMETHYLBENZ[A]ANTHRACENE, 57-97-6, Dose [Inhibitor]: 0, 0.342 UMOL 2/WK BEGINNING 1 WK POST CARCINOGEN DOSE AND CONTINUING FOR DURATION OF STUDY (STUDY DURATION: 15 WK), Route [Inhibitor]: DERMAL, Species: MOUSE, Strain/Sex: SENCAR/FEMALE, Target Tissue: Type of Lesion: SKIN: PAPILLOMA, Dose [Carcinogen]: 10 NMOL ONCE, Promoter: 12-O-TETRADECANOYLPHORBOL-13-ACETATE, 16561-29-8): 97%, 80%, 18%, not calculated
tumour outcome (control, treated, inhibition, significance) (Carcinogen: 7,12-DIMETHYLBENZ[A]ANTHRACENE, 57-97-6, Dose [Inhibitor]: 0, 0.856 UMOL 2/WK BEGINNING 1 WK POST CARCINOGEN DOSE AND CONTINUING FOR DURATION OF STUDY (STUDY DURATION: 15 WK), Route [Inhibitor]: DERMAL, Species: MOUSE, Strain/Sex: SENCAR/FEMALE, Target Tissue: Type of Lesion: SKIN: PAPILLOMA, Dose [Carcinogen]: 10 NMOL ONCE, Promoter: 12-O-TETRADECANOYLPHORBOL-13-ACETATE, 16561-29-8): 97%, 75%, 23%, not calculated
tumour outcome (control, treated, inhibition, significance) (Carcinogen: 7,12-DIMETHYLBENZ[A]ANTHRACENE, 57-97-6, Dose [Inhibitor]: 0, 10 MG A WK IN DRINKING WATER BEGINNING 1 WK POST CARCINOGEN DOSE AND CONTINUING FOR DURATION OF STUDY (STUDY DURATION, Route [Inhibitor]: ORAL, Species: MOUSE, Strain/Sex: SENCAR/MALE, Target Tissue: Type of Lesion: SKIN: PAPILLOMA, Dose [Carcinogen]: 100 NMOL IN 200 µL ACETONE ONCE, Promoter: 12-O-TETRADECANOYLPHORBOL-13-ACETATE, 16561-29-8): 95%, 98%, -3%, not calculated
